20 compounds from ChEMBL document CHEMBL6114964, “Discovery of novel spirocyclic derivates as potent androgen receptor antagonists” (Bioorg Med Chem, 2025) can be followed below.

Data set [1] in a line: cells. Format: functional, cell-based. The note with it: Homo sapiens, LNCaP-EnzR, 168 h.
Description: Antiproliferative activity against human LNCaP-EnzR cells assessed as inhibition of cell viability incubated for 7 days by Celltiter-Glo assay
Data set [2] deals with CWR22R. Nature of the data set: cells. It counts as functional, cell-based. The settings on record: Homo sapiens, 22Rv1, 168 h.
Description: Antiproliferative activity against human 22Rv1 cells assessed as inhibition of cell viability incubated for 7 days by Celltiter-Glo assay
Data set [3] has as its system LNCaP. Description: cells. Format: functional, cell-based. The settings on record: Homo sapiens, 168 h.
Description: Antiproliferative activity against human LNCaP cells incubated for 7 days in presence of R1881 by Celltiter-Glo assay
In data set [4] the target is T1, Androgen receptor (Homo sapiens, UniProt P10275).
T1 sequence (P10275 whole entry): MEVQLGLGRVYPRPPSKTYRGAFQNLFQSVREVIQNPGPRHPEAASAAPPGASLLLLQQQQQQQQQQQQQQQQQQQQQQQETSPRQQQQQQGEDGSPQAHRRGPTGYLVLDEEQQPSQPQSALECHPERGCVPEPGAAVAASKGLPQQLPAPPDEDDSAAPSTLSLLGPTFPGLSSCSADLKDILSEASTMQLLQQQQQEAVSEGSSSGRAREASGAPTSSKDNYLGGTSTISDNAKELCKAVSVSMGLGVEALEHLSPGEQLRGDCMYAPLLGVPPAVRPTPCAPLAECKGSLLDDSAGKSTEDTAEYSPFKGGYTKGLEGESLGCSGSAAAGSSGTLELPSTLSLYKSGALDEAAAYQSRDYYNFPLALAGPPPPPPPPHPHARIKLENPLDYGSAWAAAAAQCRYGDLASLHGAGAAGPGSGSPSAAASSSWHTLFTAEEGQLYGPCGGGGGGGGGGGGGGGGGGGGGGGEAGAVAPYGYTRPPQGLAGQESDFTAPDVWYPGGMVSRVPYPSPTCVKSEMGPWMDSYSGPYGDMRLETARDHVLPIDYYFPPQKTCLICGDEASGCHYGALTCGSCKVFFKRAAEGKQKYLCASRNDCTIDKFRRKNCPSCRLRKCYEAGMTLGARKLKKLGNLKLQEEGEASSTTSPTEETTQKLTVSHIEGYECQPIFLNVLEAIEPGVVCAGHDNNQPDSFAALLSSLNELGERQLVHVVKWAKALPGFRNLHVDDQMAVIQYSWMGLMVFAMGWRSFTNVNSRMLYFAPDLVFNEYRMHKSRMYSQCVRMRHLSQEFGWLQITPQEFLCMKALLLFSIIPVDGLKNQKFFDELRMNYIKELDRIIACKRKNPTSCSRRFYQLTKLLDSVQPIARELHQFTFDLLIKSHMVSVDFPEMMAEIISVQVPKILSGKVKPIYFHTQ
It counts as cell-based, HEK293.

Data set [5] can be described thus: in vitro. The settings on record: human, microsomes.
A short description of data set [6]: in vitro. The settings on record: human, microsomes. The source holds these as a separate data set.
Data set [7] can be described thus: in vitro. The settings on record: human, microsomes. This is another data set of the same source.
Description: Metabolic stability in human liver microsomes assessed as parent compound remaining at 1 uM measured after 60 mins in presence of NADPH by LC-MS/MS analysis
Data set [8] can be described thus: in vitro. The settings on record: mouse, microsomes.
Description: Metabolic stability in mouse liver microsomes assessed as parent compound remaining at 1 uM measured after 60 mins in presence of NADPH by LC-MS/MS analysis
For data set [9], the target named is Androgen receptor (Homo sapiens, UniProt P10275, W742L). Format: cell-based, HEK293.
Data set [10] concerns the target Androgen receptor (Homo sapiens, UniProt P10275, F877L). It counts as cell-based, HEK293.
The conditions of data set [11]: mouse, microsomes, 1 h, 1 µM.

The term IC50 denotes the midpoint of a concentration-inhibition curve. Regarding `C[C@](O)(Cn1ccc2cc(F)ccc21)C(=O)Nc1ccc(C#N)c(C(F)(F)F)c1`, the IC50 in [1] turned out to be 10900 nM; in data set [2], 9980 nM.

As to `N#Cc1ccc(N2CCC3(CC(NC(=O)c4ccc(C(=O)O)cc4)C3)C2)cc1C(F)(F)F` (centres undefined), in data set [3], the IC50 was more than 50000 nM.

Take `CC(O)c1cc(C(=O)NC2CC3(CCN(c4ccc(C#N)c(C(F)(F)F)c4)C3)C2)n[nH]1` (centres undefined): the IC50 in data set [3] was more than 100000 nM.

With `N#Cc1ccc(N2CCC3(CC(NC(=O)c4ccc([N+](=O)[O-])cc4)C3)C2)cc1C(F)(F)F` (centres undefined), in data set [3], the IC50 was found to be 3280 nM.

As to `N#Cc1ccc(N2CCC3(CC(NC(=O)c4ccccc4)C3)C2)cc1C(F)(F)F` (centres undefined), the IC50 in [4] came out at 43.7 nM.

Consider `CNC(=O)c1ccc(C(=O)NC2CC3(CCN(c4ccc(C#N)c(C(F)(F)F)c4)C3)C2)cc1F` (centres undefined), for which the values for the IC50 in [4] and in [3] were 26.3 nM and 2260 nM, respectively.

As for `N#Cc1ccc(NC(=O)C2CC3(CCN(c4ccc(C#N)c(C(F)(F)F)c4)C3)C2)cc1` (centres undefined), the IC50 in data set [3] is 4370 nM.

For `N#Cc1ccc(N2CCC3(CC(NC(=O)c4ccc(CO)cc4)C3)C2)cc1C(F)(F)F` (centres undefined), the results for the IC50 in data set [4] and in [3] were 37.8 nM and 1990 nM, respectively.

The half-life is how long it takes for the measured level to halve. The microsomal CLint is the rate of metabolic loss divided by the concentration. A higher microsomal CLint goes with faster metabolism. As usually defined, the fraction remaining is the share of the starting amount still present when the sample was taken. Lower therefore signals a greater loss. Regarding `N#Cc1ccc(-c2ccc(C(=O)NC3CC4(CCN(c5ccc(C#N)c(C(F)(F)F)c5)C4)C3)cc2)cc1F` (centres undefined), the IC50 is 1190 nM in [1]; 190 nM in [3]; more than 50000 nM in [2]; 116 nM in data set [9]; more than 10000 nM in data set [10]. This compound also had a half-life at 1 h, 1 µM in [5] of 2.57 h. Moreover, the microsomal CLint at 1 h, 1 µM in [6] turned out to be 9 µL/min/mg. The amount remaining at 1 h, 1 µM came to 76.8% in data set [7] and 100% in [8].

Regarding `Cc1ccc(C(=O)NC2CC3(CCN(c4ccc(C#N)c(C(F)(F)F)c4)C3)C2)cn1` (centres undefined), the IC50 in [4] came out at 33.2 nM; in [3] it was 2570 nM.

`Cc1ccc(C(=O)NC2CC3(CCN(c4ccc(C#N)c(C(F)(F)F)c4)C3)C2)cc1` (centres undefined) yielded a half-maximal inhibitory concentration (IC50) in data set [3] of 1260 nM.

With `N#Cc1ccc(CN2CC3(CCN(c4ccc(C#N)c(C(F)(F)F)c4)C3)C2)cc1`, it took 313 nM to reach half-maximal inhibition in data set [4] (IC50).

For the compound `N#Cc1ccc(-c2ccc(C(=O)NC3CC4(CCN(c5ccc(C#N)c(C(F)(F)F)c5)C4)C3)cc2)cc1` (centres undefined), the IC50 in data set [1] was 1140 nM; in data set [4] it was 29.8 nM; in data set [3], 80 nM; in data set [2], more than 50000 nM; in data set [9] it was 160 nM.

With `COc1ccc(C(=O)NC2CC3(CCN(c4ccc(C#N)c(C(F)(F)F)c4)C3)C2)cc1` (centres undefined), the IC50 in data set [4] was found to be 25.1 nM; in data set [3], 920 nM.

With `CN1CCN(c2ccc(C(=O)NC3CC4(CCN(c5ccc(C#N)c(C(F)(F)F)c5)C4)C3)cc2)CC1` (centres undefined), the IC50 in [4] worked out at 24.6 nM; in [3], 3570 nM.

In turn, `COC(=O)c1ccc(C(=O)NC2CC3(CCN(c4ccc(C#N)c(C(F)(F)F)c4)C3)C2)cc1` (centres undefined) yielded an IC50 in data set [3] of 6460 nM.

`C[C@](O)(CN1CCN(c2ccc(-c3ccc(C#N)c(F)c3)cc2)CC1)C(=O)Nc1ccc(C#N)c(C(F)(F)F)c1`: the figures for the IC50 in data set [1] and in data set [2] were 3290 nM and 2340 nM, respectively. The compound also registered a CLH in data set [11] of 282 µL/min. In addition, the half-life at 1 h, 1 µM in data set [5] stood at 0.0825 h. This compound came in with a microsomal CLint at 1 h, 1 µM in data set [6] of 252 µL/min/mg. Moreover, the amount remaining at 1 h, 1 µM worked out at 0.74% in [7] and 12.2% in data set [8].

With `N#Cc1ccc(N2CCC3(CC(NC(=O)c4ccc(-c5ccc(OCCO)cc5)cc4)C3)C2)cc1C(F)(F)F` (centres undefined), in data set [3], it took 650 nM to reach half-maximal inhibition (IC50).

In [3], `N#Cc1ccc(N2CCC3(CC(NC(=O)c4ccc(F)cc4)C3)C2)cc1C(F)(F)F` (centres undefined) showed an IC50 of 2230 nM.

`CC(O)c1cc(C(=O)N[C@@H](C)Cn2ccc(-c3ccc(C#N)c(Cl)c3)n2)n[nH]1` (some centres undefined) [DAROLUTAMIDE] displayed an IC50 in data set [1] of 31200 nM.
